pIC50: −log10 of the molar value.
How the values were obtained:
[1] = molecular target: D-1 receptor; assay: D-1 receptor in carp retina (in vitro); settings: concentration of agonist required to inhibit the biochemical response by 50%, read-out: Fish retina D-1 receptor IC50
[2] = molecular target: D-2 receptor (Rattus norvegicus, UniProt P61169)
D-2 receptor, sequence (P61169 whole entry): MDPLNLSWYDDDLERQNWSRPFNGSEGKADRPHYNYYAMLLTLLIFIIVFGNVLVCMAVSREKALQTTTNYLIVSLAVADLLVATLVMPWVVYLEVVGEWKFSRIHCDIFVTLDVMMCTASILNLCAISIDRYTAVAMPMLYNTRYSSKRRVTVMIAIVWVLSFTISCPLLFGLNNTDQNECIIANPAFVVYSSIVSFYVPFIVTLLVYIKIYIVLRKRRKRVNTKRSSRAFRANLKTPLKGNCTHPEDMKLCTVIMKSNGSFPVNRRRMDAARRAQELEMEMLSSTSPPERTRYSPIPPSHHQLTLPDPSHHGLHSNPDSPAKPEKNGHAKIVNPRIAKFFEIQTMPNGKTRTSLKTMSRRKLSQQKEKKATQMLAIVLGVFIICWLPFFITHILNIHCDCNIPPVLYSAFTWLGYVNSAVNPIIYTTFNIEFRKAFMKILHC

SMILES | pIC50 [1] | times more potent than apomorphine at the D-2 receptor ([2]; relative to apomorphine) | times more potent than dopamine at the D-2 receptor ([2]; relative to dopamine) [times]
CN1CCc2cccc3c2[C@H]1Cc1ccc(O)c(O)c1-3 [Apomorphine, reference compound] | 5.82 | – | –
CCCN(CCc1ccccc1)C1CCc2c(O)cccc2C1 (stereo not shown) [PPHT, 2-(N-phenylethyl-N-propylamino)-5-hydroxytetralin] | 5.43 | approximately 40 times | 250

— US4465692A (Nelson Research & Development Company, priority 1982, dated 1984)
